System: C57BL mice infused with LPS
Assay: Endotoxemia study: vascular permeability (intravascular-extravascular intensity)
Type: in vivo
Conditions: 2 hours after LPS infusion; 10 mg/kg; FIG. 10
Method: In this study, the effect of treatment with curcumin-selenium nanoparticles was evaluated in animal models with endotoxemia. In particular, C57BL mice were first infused with 10 mg/kg of LPS (Lipopolysaccharides from E. coli serotype 0128:B12, Sigma Aldrich St. Louis, Mo.). The mice were then separated into 5 treatment groups: 1) no treatment; 2) control NP 10 mg/kg; 3) curcumin 10 mg/kg; 4) curcumin-NP 10 mg/kg (dose calculated based on curcumin concentration); and 5) curcumin-selenium-NP 10 mg/kg (dose calculated based on curcumin concentration). Treatments were administered 30 minutes after LPS infusion. No additional fluid therapies were applied, and food and water was available during observation time points. […] Vascular integrity for all treatment groups was also evaluated at baseline and 2 hours after LPS infusion. Additionally, other end points related to systemic and microvascular function (i.e., heart rate, arteriolar diameter, arteriolar blood flow, and functional capillary density) were evaluated for 4 of the treatment groups (no treatment, control NP 10, curcumin-NP 10 mg/kg, and curcumin-selenium-NP 10 mg/kg treatment groups) at baseline, and 2, 4, 6, 12, and 24 hours after LPS infusion.

COc1cc(/C=C/C(=O)CC(=O)/C=C/c2ccc(O)c(OC)c2)ccc1O [curcumin]
vascular permeability compared with the untreated and control NP treatment groups: markedly less vascular permeability
